Laboratory results as given in US11063221B2, “Materials for electronic devices” (Merck Patent GmbH, priority 2014, dated 2021).
Converted amounts (≈) assume the structure as drawn.

Assay: Solubility of host materials (Table 4, solution-processed OLEDs)
Type: physicochemical
Conditions: Example V8

Compound	Solubility / processability from solution (in words)
c1ccc(-c2c3ccccc3c(-c3cccc4c3ccc3cc5ccccc5cc34)c3ccccc23)cc1 [VH-3]	cannot be processed from solution at all owing to the low solubility

Same assay, conditions: host material; solvent not given (emission-layer mixture is dissolved in toluene)

Compound	Solubility
c1ccc(-c2c3ccccc3c(-c3cccc4c3ccc3cc5ccccc5cc34)c3ccccc23)cc1 [VH-3]	<1 mg/mL
c1ccc2cc(-c3c4ccccc4c(-c4cccc5ccccc45)c4ccccc34)ccc2c1 [VH-4]	44 mg/mL (≈ 102 mM)
CC(C)Cc1c2ccccc2cc2c1ccc1c(-c3c4ccccc4c(-c4ccccc4)c4ccccc34)cccc12 [H-2]	45 mg/mL (≈ 83.8 mM)
c1ccc(-c2cc(-c3ccccc3)cc(-c3c4ccccc4c(-c4cccc5c4ccc4cc6ccccc6cc45)c4ccccc34)c2)cc1 [VH-1]	70 mg/mL (≈ 111 mM)
Cc1c2ccccc2cc2c1ccc1c(-c3c4ccccc4c(-c4ccccc4)c4ccccc34)cccc12 [H-1]	40 mg/mL (≈ 80.9 mM)
